pIC50: −log10 of the molar value. Where a name gives a salt, the structure may show the parent alone. Read-outs that look alike come from different tables or passages of the source.
Test system: Normal Human Serum (NHS)
Test: Hemolysis assay: lysis of rabbit erythrocytes (RE) by Normal Human Serum (NHS)
Format: cell-based
Conditions: rabbit erythrocyte, 0.5 h, GVB0 plus 10 mM Mg-EGTA, 37° C.
Protocol: The hemolysis assay was previously described by G. Ruiz-Gomez, et al., J. Med. Chem. (2009) 52: 6042-6052. Prior to the assay, the optimum concentration of Normal Human Serum (NHS) needed to achieve 100% lysis of rabbit erythrocytes (RE) is determined by titration. In the assay, NHS (Complement Technology) is diluted in GVB^0 Buffer (0.1% gelatin, 5 mM Veronal, 145 mM NaCl, 0.025% NaN3, pH 7.3, Complement Technology) plus 10 mM Mg-EGTA and incubated with test compound at various concentrations for 15 minutes at 37° C. RE (Complement Technology) freshly suspended in GVB^0 plus 10 mM Mg-EGTA are added to a final concentration of 1×10^8 cells/mL and reactions are incubated for 30 minutes at 37° C. Positive control reactions (100% lysis) consist of GVB^0 plus 10 mM Mg-EGTA with NHS and RE but without test compound; negative control reactions (0% lysis) consist of GVB^0 plus 10 mM Mg-EGTA with RE only. Samples are centrifuged at 2000 g for 3 minutes and supernatants collected. Absorbance at 405 nm (A405) is recorded using a microplate spectrophotometer. IC50 values are calculated by nonlinear regression from the percentage of hemolysis as a function of test compound concentration.

[1] = Table 3, hemolysis of rabbit erythrocytes with NHS, read-out: IC50 (Stars)
[2] = Table 1, hemolysis of rabbit erythrocytes with NHS, read-out: IC50

SMILES	pIC50 [1]	pIC50 [2]
COc1cc(C)c2[nH]ccc2c1CN1CCC(C)CC1c1ccc(C(=O)O)c2c1CCCC2 (stereo not shown) [Compound 28, 4-(1-((5-Methoxy-7-methyl-1H-indol-4-yl)methyl)-4-methylpiperidin-2-yl)-5,6,7,8-tetrahydronaphthalene-1-carboxylic Acid]	> 6.00	
COc1cc2c(N)nc(N3CCN(C(=O)C[C@@H]4C[C@@H]5CCC[C@@H]5N4)CC3)nc2c(F)c1OC [Compound 2, 1-(4-(4-Amino-8-fluoro-6,7-dimethoxyquinazolin-2-yl)piperazin-1-yl)-2-((2S,3aS,6aS)-octahydrocyclopenta[b]pyrrol-2-yl)ethan-1-one Hydrochloride]		> 6.00
COc1cc(C)c2[nH]c(C)cc2c1CN1CC[C@@H](C)C[C@H]1c1ccc(C(=O)O)cc1 [Compound 24, 4-((2S, 4R)-1-((5-Methoxy-2,7-dimethyl-1H-indol-4-yl) Methyl)-4-methylpiperidin-2-yl) Benzoic Acid]	< 5.00	
COc1cc(C)c2[nH]ccc2c1CN1CC[C@@H](C)C[C@H]1c1ccc(S(C)(=N)=O)cc1 (stereo partly drawn) [Compound 22, 5-Methoxy-7-methyl-4-(((2 S,4R)-4-methyl-2-(4-(S-methylsulfonimidoyl)phenyl)piperidin-1-yl)methyl)-1H-indole]	> 6.00	
COc1cc(C)c2[nH]ccc2c1CN1CCC(C)CC1c1ccc(S(C)(=N)=O)cc1 (stereo not shown) [Compound 25, 5-Methoxy-7-methyl-4-((4-methyl-2-(4-(S-methylsulfonimidoyl)phenyl)piperidin-1-yl)methyl)-1H-indole]	> 6.00	
CCN[C@H](CC(=O)N1CCC(c2nc(N)c3cc(OC)c(OC)c(F)c3n2)CC1)c1ccc(F)cc1 [Compound 5, (R)-1-(4-(4-Amino-8-fluoro-6,7-dimethoxyquinazolin-2-yl)piperidin-1-yl)-3-(ethylamino)-3-(4-fluorophenyl)propan-1-one]		5.00 to 6.00
COc1cc(C)c2[nH]ccc2c1CN1CC[C@@H](C)C[C@H]1c1ccc([S@](C)(=N)=O)cc1 [Compound 31, 5-Methoxy-7-methyl-4-(((2S,4R)-4-methyl-2-(4-((R)—S-methylsulfonimidoyl)phenyl)piperidin-1-yl)methyl)-H-indole]	> 6.00	

Source: patent US10961252B2, “Quinazoline and indole compounds to treat medical disorders” (Achillion Pharmaceuticals, Inc., priority 2016, dated 2021)
